Test results taken from US20040014972A1, “Arylpiperazine derivatives and their use as psychotropic agents” (priority 2000, published 2004).

melting point [°C]	SMILES
145 to 146	O=C(O)/C=C/C(=O)O.OC(CCCN1CCN(c2cccc3cccnc23)CC1)c1ccc(F)cc1 (stereo not drawn)
233 to 234	Cl.Cl.O=C(CCCN1CCN(c2cccc3[nH]ccc23)CC1)c1ccc(F)cc1
119 to 120	Cl.Cl.Cl.O.O.O=C(CCCN1CCN(c2cccc3cccnc23)CC1)c1ccc(F)cc1 (hydrate or solvate)
